Structures can show the parent of a compound that is named as a salt. Where two headings read alike, the source gives them in different places.
Legend:
TNKS2 = TNKS2 (Homo sapiens (Human), UniProt Q9H2K2); experiment: Biochemical IC50 TNKS2
Source text: (§1) XLfit (idbs) was used to determine the IC50-values in inhibition experiments. The following formula was chosen to fit the data points (Langmuir Binding Isotherm): fit=((A+(B*x))+(((C−B)*(1−exp((−1*D)*x)))/D)), res=(y−fit).

[1] = Metabolic stability in mouse liver microsomes (MLM); assay type: in vitro ADME; conditions: pH 7.4, 1 μM compound, 0.5 mg/ml microsomal protein, 37° C.; for half-life at 1 μM: read-out: MLM t1/2 average
Experimental: (§2) Metabolic stability was investigated in mouse liver microsomes (MLM) and in human liver microsomes (HLM): […] Incubations were performed at 37° C. Control incubations with reference substances were included for each experiment. […] After the last time point, the quench plates were mixed thoroughly and centrifuged for 15 minutes at 3700 rpm and 10° C. (Eppendorf 5804R). The supernatant was transferred to new 96 well plates and subjected to LCMS analysis. The disappearance of the parent compound was determined.

HEK293 = experiment: Cellular IC50 HEK293; assay type: cell-based
Source text: as §1

[2] = Metabolic stability in human liver microsomes (HLM); assay type: in vitro ADME; conditions: pH 7.4, 1 μM compound, 0.5 mg/ml microsomal protein, 37° C.; for half-life at 1 μM: read-out: HLM t1/2 average
Experimental: as §2

[3] = read-out: Biochemical IC50 TNKS2
[4] = Homo sapiens, HEK293; read-out: Cellular IC50 HEK293
[5] = Homo sapiens, HEK293; read-out: Cellular IC50 HEK 293
[6] = Homo sapiens, HEK293, read-out: Cellular IC50 HEK 293
[7] = Homo sapiens, HEK293, read-out: Cellular IC50 HEK293

Sequence of TNKS2 (Q9H2K2 whole entry): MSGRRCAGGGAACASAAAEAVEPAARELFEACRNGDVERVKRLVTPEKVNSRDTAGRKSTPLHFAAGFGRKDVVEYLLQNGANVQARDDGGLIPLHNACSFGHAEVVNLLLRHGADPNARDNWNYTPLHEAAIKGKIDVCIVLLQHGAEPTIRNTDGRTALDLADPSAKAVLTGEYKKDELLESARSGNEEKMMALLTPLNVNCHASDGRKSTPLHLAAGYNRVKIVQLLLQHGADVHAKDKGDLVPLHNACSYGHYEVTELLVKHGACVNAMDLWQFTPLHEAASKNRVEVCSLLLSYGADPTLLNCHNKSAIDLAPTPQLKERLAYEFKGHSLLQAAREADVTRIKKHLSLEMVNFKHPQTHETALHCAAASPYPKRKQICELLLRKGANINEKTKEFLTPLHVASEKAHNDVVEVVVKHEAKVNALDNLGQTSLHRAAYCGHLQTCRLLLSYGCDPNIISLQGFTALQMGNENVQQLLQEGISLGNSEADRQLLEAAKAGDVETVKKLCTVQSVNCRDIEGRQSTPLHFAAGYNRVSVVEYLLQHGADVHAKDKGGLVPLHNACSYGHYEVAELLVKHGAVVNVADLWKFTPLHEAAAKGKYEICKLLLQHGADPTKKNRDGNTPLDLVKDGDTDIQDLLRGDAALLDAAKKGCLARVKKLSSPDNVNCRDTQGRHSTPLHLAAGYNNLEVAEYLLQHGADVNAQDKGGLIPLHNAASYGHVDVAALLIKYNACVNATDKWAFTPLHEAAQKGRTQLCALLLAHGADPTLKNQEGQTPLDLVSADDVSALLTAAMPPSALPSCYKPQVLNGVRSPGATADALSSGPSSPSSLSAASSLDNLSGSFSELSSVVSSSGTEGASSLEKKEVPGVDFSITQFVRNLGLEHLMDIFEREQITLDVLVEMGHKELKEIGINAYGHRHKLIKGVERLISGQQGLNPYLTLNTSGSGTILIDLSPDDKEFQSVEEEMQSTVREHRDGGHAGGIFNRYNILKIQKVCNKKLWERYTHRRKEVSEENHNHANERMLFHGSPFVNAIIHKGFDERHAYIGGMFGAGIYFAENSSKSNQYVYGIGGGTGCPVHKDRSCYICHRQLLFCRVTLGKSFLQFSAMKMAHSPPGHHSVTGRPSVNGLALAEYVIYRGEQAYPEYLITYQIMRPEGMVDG

| SMILES | IC50 (TNKS2; [3]) | IC50 (HEK293; [4]) | IC50 (HEK293; [5]) | further results |
| --- | --- | --- | --- | --- |
| CCOc1ccc(-c2nnc([C@H]3C[C@H](NC(=O)c4cccc5ncc(O)nc45)C3)n2-c2ccccc2F)nc1 [Example 1, N-((1R,3r)-3-(5-(5-ethoxypyridin-2-yl)-4-(2-fluorophenyl)-4H-1,2,4-triazol-3-yl)cyclobutyl)-3-hydroxyquinoxaline-5-carboxamide] | 36 nM | 220 nM | – | microsomal CLint at 1 μM [1]: 72 µL/min/mg; half-life at 1 μM [1]: 0.317 h; microsomal CLint at 1 μM [2]: 45 µL/min/mg; half-life at 1 μM [2]: 0.517 h |
| CCOc1ccc(-c2nnc([C@H]3C[C@H](NC(=O)c4cccc5nc(O)cnc45)C3)n2-c2ccccc2F)nc1 [Example 2, Dihydrochloride] | 1.5 nM | 1.1 nM | – | microsomal CLint at 1 μM [1]: 7 µL/min/mg; half-life at 1 μM [1]: > 1.5 h; microsomal CLint at 1 μM [2]: 17 µL/min/mg; half-life at 1 μM [2]: 1.32 h |
| CCOc1ccc(-c2nnc([C@H]3C[C@H](NC(=O)c4cccc5nc(O)c(O)nc45)C3)n2-c2ccccc2F)nc1 [Example 3, N-((1R,3r)-3-(5-(5-ethoxypyridin-2-yl)-4-(2-fluorophenyl)-4H-1,2,4-triazol-3-yl)cyclobutyl)-2,3-dihydroxyquinoxaline-5-carboxamide] | 71 nM | 1250 nM | – | microsomal CLint at 1 μM [1]: 9 µL/min/mg; half-life at 1 μM [1]: > 1.5 h; microsomal CLint at 1 μM [2]: 5 µL/min/mg; half-life at 1 μM [2]: > 1.5 h |
| CCOc1ccc(-c2nnc([C@H]3C[C@H](NC(=O)c4cccc(C(N)=O)n4)C3)n2-c2ccccc2F)nc1 [Example 7, N-(trans-3-(5-(5-ethoxypyridin-2-yl)-4-(2-fluorophenyl)-4H-1,2,4-triazol-3-yl)cyclobutyl)pyridine-2,6-dicarboxamide] | – | 70 nM | 70 nM | – |
| CCOc1ccc(-c2nnc([C@H]3C[C@H](NC(=O)c4cccc(C(=O)NC)n4)C3)n2-c2ccccc2F)nc1 [Example 8, N2-(trans-3-(5-(5-ethoxypyridin-2-yl)-4-((S)-2-fluorophenyl)-4H-1,2,4-triazol-3-yl)cyclobutyl)-N6-methylpyridine-2,6-dicarboxamide] | – | 21 nM | 21 nM | – |
| CCOc1ccc(-c2nnc([C@H]3C[C@H](NC(=O)c4cccc(C(=O)N(C)C)n4)C3)n2-c2ccccc2F)nc1 [Example 9] | – | 187 nM | 190 nM | – |
| CCOc1ccc(-c2nnc([C@H]3C[C@H](NC(=O)c4cccc(C(=O)N5CCC5)n4)C3)n2-c2ccccc2F)nc1 [Example 10, 6-(azetidine-1-carbonyl)-N-(trans-3-(5-(5-ethoxypyridin-2-yl)-4-((S)-2-fluorophenyl)-4H-1,2,4-triazol-3-yl)cyclobutyl)picolinamide] | – | – | – | IC50 (HEK293; [6]): 41 nM; IC50 (HEK293; [7]): 41 nM |
| CCOc1ccc(-c2nnc([C@H]3C[C@H](NC(=O)c4cccc(=O)[nH]4)C3)n2-c2ccccc2F)nc1 [Example 11, N-(trans-3-(5-(5-ethoxypyridin-2-yl)-4-(2-fluorophenyl)-4H-1,2,4-triazol-3-yl)cyclobutyl)-6-oxo-1,6-dihydropyridine-2-carboxamide] | – | 2770 nM | 2800 nM | – |
| CCOc1ccc(-c2nnc([C@H]3C[C@H](NC(=O)c4cccc5cc(O)ccc45)C3)n2-c2ccccc2F)nc1 [Example 12] | – | > 10000 nM | > 10000 nM | – |
| CCOc1ccc(-c2nnc([C@H]3C[C@H](NC(=O)c4cccc5[nH]c(=O)ccc45)C3)n2-c2ccccc2F)nc1 [Example 13, N-(trans-3-(5-(5-ethoxypyridin-2-yl)-4-(2-fluorophenyl)-4H-1,2,4-triazol-3-yl)cyclobutyl)-2-oxo-1,2-dihydroquinoline-5-carboxamide] | – | > 10000 nM | > 10000 nM | – |
| CCOc1ccc(-c2nnc([C@H]3C[C@H](NC(=O)c4cccc5c(O)ccnc45)C3)n2-c2ccccc2F)nc1 [Example 14, N-(trans-3-(5-(5-ethoxypyridin-2-yl)-4-(2-fluorophenyl)-4H-1,2,4-triazol-3-yl)cyclobutyl)-4-hydroxyquinoline-8-carboxamide] | – | 8.5 nM | 8.5 nM | – |
| CCOc1ccc(-c2nnc([C@H]3C[C@H](NC(=O)c4cccc(O)c4)C3)n2-c2ccccc2F)nc1 [Example 15, N-(trans-3-(5-(5-ethoxypyridin-2-yl)-4-(2-fluorophenyl)-4H-1,2,4-triazol-3-yl)cyclobutyl)-3-hydroxybenzamide] | – | 130 nM | 130 nM | – |
| CCOc1ccc(-c2nnc([C@H]3C[C@H](NC(=O)c4cccc(S(N)(=O)=O)c4)C3)n2-c2ccccc2F)nc1 [Example 16, N-(trans-3-(5-(5-ethoxypyridin-2-yl)-4-(2-fluorophenyl)-4H-1,2,4-triazol-3-yl)cyclobutyl)-3-sulfamoylbenzamide] | – | 2260 nM | 2300 nM | – |
| CCOc1ccc(-c2nnc([C@H]3C[C@H](NC(=O)c4ccc[n+]([O-])c4)C3)n2-c2ccccc2F)nc1 [Example 18, 3-((trans-3-(5-(5-ethoxypyridin-2-yl)-4-(2-fluorophenyl)-4H-1,2,4-triazol-3-yl)cyclobutyl)carbamoyl)pyridine 1-oxide] | – | > 10000 nM | > 10000 nM | – |
| CCOc1ccc(-c2nnc([C@H]3C[C@H](NC(=O)c4cc[n+]([O-])cc4)C3)n2-c2ccccc2F)nc1 [Example 19, 4-((trans-3-(5-(5-ethoxypyridin-2-yl)-4-(2-fluorophenyl)-4H-1,2,4-triazol-3-yl)cyclobutyl)carbamoyl)pyridine 1-oxide] | – | 34 nM | 34 nM | – |
| CCOc1ccc(-c2nnc([C@H]3C[C@H](NC(=O)c4cccc(N)n4)C3)n2-c2ccccc2F)nc1 [Example 20, 6-amino-N-(trans-3-(5-(5-ethoxypyridin-2-yl)-4-(2-fluorophenyl)-4H-1,2,4-triazol-3-yl)cyclobutyl)picolinamide] | 7.2 nM | 27 nM | 27 nM | – |
| CCOc1ccc(-c2nnc([C@H]3C[C@H](NC(=O)c4ccc5cccc(O)c5n4)C3)n2-c2ccccc2F)nc1 [Example 21, N-(trans-3-(5-(5-ethoxypyridin-2-yl)-4-(2-fluorophenyl)-4H-1,2,4-triazol-3-yl)cyclobutyl)-8-hydroxyquinoline-2-carboxamide] | 12.5 nM | 72 nM | 72 nM | – |
| CCOc1ccc(-c2nnc([C@H]3C[C@H](NC(=O)c4cccc5c(N(C)C)ccnc45)C3)n2-c2ccccc2F)nc1 [Example 22] | 2.1 nM | 15 nM | 15 nM | – |
| CCOc1ccc(-c2nnc([C@H]3C[C@H](NC(=O)c4cccc5cc(O)cnc45)C3)n2-c2ccccc2F)nc1 [Example 23, N-(trans-3-(5-(5-ethoxypyridin-2-yl)-4-(2-fluorophenyl)-4H-1,2,4-triazol-3-yl)cyclobutyl)-3-hydroxyquinoline-8-carboxamide] | 1.3 nM | 3.6 nM | 3.6 nM | – |
| CCOc1ccc(-c2nnc([C@H]3C[C@H](NC(=O)c4cccc5c4nc(C)c(C)[n+]5[O-])C3)n2-c2ccccc2F)nc1 [Example 24, 5-((trans-3-(5-(5-ethoxypyridin-2-yl)-4-(2-fluorophenyl)-4H-1,2,4-triazol-3-yl)cyclobutyl)carbamoyl)-2,3-dimethylquinoxaline 1-oxide] | – | – | – | IC50 (HEK293; [6]): 3.7 nM; IC50 (HEK293; [7]): 3.7 nM |
| CCOc1ccc(-c2nnc([C@H]3C[C@H](NC(=O)c4cccc5c4ccc[n+]5[O-])C3)n2-c2ccccc2F)nc1 [Example 25, 5-((trans-3-(5-(5-ethoxypyridin-2-yl)-4-(2-fluorophenyl)-4H-1,2,4-triazol-3-yl)cyclobutyl)carbamoyl)quinoline 1-oxide] | – | – | – | IC50 (TNKS2): 978 nM; IC50 (HEK293; [6]): 10000 nM; IC50 (HEK293; [7]): 9960 nM |
| CCOc1ccc(-c2nnc([C@H]3C[C@H](NC(=O)c4cc[n+]([O-])c5cccnc45)C3)n2-c2ccccc2F)nc1 [Example 26, 4-((trans-3-(5-(5-ethoxypyridin-2-yl)-4-(2-fluorophenyl)-4H-1,2,4-triazol-3-yl)cyclobutyl)carbamoyl)-1,5-naphthyridine 1-oxide] | 2.6 nM | 1.4 nM | 1.4 nM | – |
| CCOc1ccc(-c2nnc([C@H]3C[C@H](NC(=O)c4cc[n+]([O-])c5cc(O)cnc45)C3)n2-c2ccccc2F)nc1 [Example 27, 4-((trans-3-(5-(5-ethoxypyridin-2-yl)-4-(2-fluorophenyl)-4H-1,2,4-triazol-3-yl)cyclobutyl)carbamoyl)-7-hydroxy-1,5-naphthyridine 1-oxide] | – | – | – | IC50 (TNKS2): 1.7 nM; IC50 (HEK293; [6]): 22 nM; IC50 (HEK293; [7]): 22 nM |
| CCOc1ccc(-c2nnc([C@H]3C[C@H](NC(=O)c4cc[n+]([O-])c5cc(OC)cnc45)C3)n2-c2ccccc2F)nc1 [Example 28, 4-((trans-3-(5-(5-ethoxypyridin-2-yl)-4-(2-fluorophenyl)-4H-1,2,4-triazol-3-yl)cyclobutyl)carbamoyl)-7-methoxy-1,5-naphthyridine 1-oxide] | – | – | – | IC50 (TNKS2): 3.5 nM; IC50 (HEK293; [6]): 1.2 nM; IC50 (HEK293; [7]): 1.2 nM |
| CCOc1ccc(-c2nnc([C@H]3C[C@H](NC(=O)c4cc[n+]([O-])c5cc(F)cnc45)C3)n2-c2ccccc2F)nc1 [Example 29, 4-((trans-3-(5-(5-ethoxypyridin-2-yl)-4-(2-fluorophenyl)-4H-1,2,4-triazol-3-yl)cyclobutyl)carbamoyl)-7-fluoro-1,5-naphthyridine 1-oxide] | – | 2.8 nM | 2.8 nM | – |

— US20230322721A1 (OSLO UNIVERSITETSSYKEHUS HF, priority 2020, published 2023)
